How the values were obtained:
PEGE primary cells [1] = experiment: Short-circuit current (Isc) of cell monolayers in Ussing chambers, primary cells; format: cell-based, porcine
Method: (§1) PEGE primary cells, isolated and cultured as previously described (Deachapunya and O'Grady, J. of Physiology, 508 (Part 1), 31-47 (1998)), and PEGE1 cells were used. Transepithelial resistance of cell monolayers was measured using the EVOM epithelial voltohmmeter coupled to Ag/AgCl “chopstick” electrodes (World Precision Instrument, New Haven, Conn.). After 10 days, the confluent culture inserts were mounted in Ussing Chambers, bathed on both sides with standard porcine Ringer solution which was maintained at 37° C., and bubbled with 95% O2 and 5% CO2. Transepithelial potential difference and Isc were measured with the use of voltage-clamp circuitry from JWT Engineering (Overland Park, Kans.). The data from the voltage clamp experiments was digitized, stored and analyzed using Workbench data acquisition software (Kent Scientific Corporation, Litchfield, Conn.) and recorded with a Compaq pentium microcomputer.
(§2) All values are presented as means±SEM. n is the number of monolayers. The differences between control and treatment means were analyzed using a t-test for paired or unpaired means where appropriate. A value of p<0.05 was considered statistically significant.

PEGE1 cells = experiment: Short-circuit current (Isc) of cell monolayers in Ussing chambers, immortalized cells; format: cell-based, porcine; settings: for Mean 8 cpt cAMP-stimulated Isc / Mean 8 cpt cAMP-stimulated NPPB-sensitive Isc: n=6
Method: as §1, §2

PEGE primary cells [2] = settings: serum-containing conditions, Deachapunya and O'Grady 1998; cited from earlier work

For `Nc1ncnc2c1nc(Sc1ccc(Cl)cc1)n2[C@@H]1O[C@@H]2COP(=O)(O)O[C@H]2[C@H]1O` [8 cpt cAMP, 8(4-chlorophenylthiol) cAMP], the “Mean 8 cpt cAMP-stimulated Isc” value (PEGE primary cells [1]; passage 4, 50 μM 8 cpt cAMP, n=6) was 25.9 μA, the “Mean 8 cpt cAMP-stimulated Isc” value (PEGE1 cells; passage 19, 50 μM 8 cpt cAMP) was 33.2 μA and the “Mean 8 cpt cAMP-stimulated Isc” value (PEGE1 cells; passage 44-51, 50 μM 8 cpt cAMP) was 15.6 μA.

For `O=C(O)c1cc([N+](=O)[O-])ccc1NCCCc1ccccc1` [NPPB, 5-nitro-2-(3phenylpropylamino) benzoic acid], the “Mean PGE2-stimulated NPPB-sensitive Isc” value (PEGE primary cells [1]; passage 4, 100 μM NPPB after 3 μM PGE2, n=5) was 24.9 μA, the “Mean 8 cpt cAMP-stimulated NPPB-sensitive Isc” value (PEGE primary cells [1]; passage 4, 100 μM NPPB after 50 μM 8 cpt cAMP, n=6) was 17.6 μA and the “Mean PGE2-stimulated NPPB-sensitive Isc” value (PEGE1 cells; passage 19, 100 μM NPPB after 3 μM PGE2, n=6) was 33.4 μA. For the same compound, the “Mean 8 cpt cAMP-stimulated NPPB-sensitive Isc” value (PEGE1 cells; passage 19, 100 μM NPPB after 50 μM 8 cpt cAMP) was 24.3 μA, the “Mean PGE2-stimulated NPPB-sensitive Isc” value (PEGE1 cells; passage 44-51, 100 μM NPPB after 3 μM PGE2, n=5) was 12.5 μA and the “Mean 8 cpt cAMP-stimulated NPPB-sensitive Isc” value (PEGE1 cells; passage 44-51, 100 μM NPPB after 50 μM 8 cpt cAMP) was 14.5 μA. For the same compound, the “Effect on PGE2- or cAMP-stimulated increase in Isc” value (PEGE primary cells [2]) was “blocked”.

For `CCCCC[C@H](O)/C=C/[C@H]1[C@H](O)CC(=O)[C@@H]1C/C=C\CCCC(=O)O` [PGE2], the “Mean PGE2-stimulated Isc” value (PEGE primary cells [1]; passage 4, 3 μM PGE2, n=5) was 40.3 μA, the “Mean PGE2-stimulated Isc” value (PEGE1 cells; passage 19, 3 μM PGE2, n=6) was 69.0 μA and the “Mean PGE2-stimulated Isc” value (PEGE1 cells; passage 44-51, 3 μM PGE2, n=5) was 35.0 μA. For the same compound, the “Effect of stimulation on Isc” value (PEGE primary cells [2]) was “increase in Isc”.

With `NC(=NCc1ccccc1)NC(=O)c1nc(Cl)c(N)nc1N` [benzamil] the “Mean benzamil-sensitive Isc” value (PEGE primary cells [1]; passage 4, 5 μM benzamil, n=12) was 0.5 μA, the “Mean benzamil-sensitive Isc” value (PEGE1 cells; passage 19, 5 μM benzamil, n=15) was 1.6 μA and the “Mean benzamil-sensitive Isc” value (PEGE1 cells; passage 44-51, 5 μM benzamil, n=15) was 1.7 μA.

In the case of `COc1ccc2c(c1)c(CC(=O)O)c(C)n2C(=O)c1ccc(Cl)cc1` [indomethecin], the “Mean indomethecin-sensitive Isc” value (PEGE primary cells [1]; passage 4, 10 μM indomethecin, n=12) is reported as 3.4 μA, the “Mean indomethecin-sensitive Isc” value (PEGE1 cells; passage 19, 10 μM indomethecin, n=15) is reported as 5.0 μA and the “Mean indomethecin-sensitive Isc” value (PEGE1 cells; passage 44-51, 10 μM indomethecin, n=14) is reported as 0.6 μA.

From patent publication US20030232409A1, “Immortal porcine cells” (Regents of the University of Minnesota, priority 2002, published 2003)
